How the values were obtained:
[1] = target: T1, islet amyloid polypeptide (IAPP) (Homo sapiens, UniProt P10997); assay: ThT-based kinetic assay of IAPP fibrillation; assay type: biochemical; settings: for relative t50 of IAPP fibrillation versus control reaction: 15 μM IAPP, equimolar ratio
T1 construct: IAPP is a 37 residue neuropancreatic hormone peptide; purchased Anaspec (Fremont, Calif.)
T1 sequence (P10997 34-70 limits assumed): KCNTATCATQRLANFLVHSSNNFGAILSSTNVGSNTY
Excerpt: The aggregation kinetics of IAPP was probed using an exogenous reporter, Thioflavin T (ThT), which quantifies the amount of fibers in solution without perturbing the aggregation kinetics of IAPP (see Wolfe, L. S.; Calabrese, M. F.; Nath, A.; Blaho, D. V.; Miranker, A. D.; Xiong, Y. Proc. Natl. Acad. Sci. U.S.A. 2010, 107, 16863-16868; Levine, H. Protein Sci. 1993, 2, 404-410). […] The kinetics of IAPP fibrillation was quantified using the reaction midpoint, t50, which is the time required to reach 50% fluorescence in the fibrillation reaction (FIG. 8).
Kinetic assays were conducted on a FlexStation 3 Multi-Mode Microplate reader from Molecular Devices (Sunnyvale, Calif.). Experiments were conducted in triplicate in a 96-well plate with a final volume of 200 μL per well. Every measurement was an average of 50 readings. The aggregation of IAPP was initiated by its addition from a stock solution (1 mM in DMSO) to phosphate buffer. The stoichiometry ratio for ThT to IAPP was 0.5:1. Peptide aggregation was monitored by ThT fluorescence (λex=445 nm and λem=485 nm). The blank sample contained all the components of the peptide samples except peptide. The sample data were processed by subtracting the blank and renormalizing the fluorescence intensity by setting the maximum value to 1.
Kinetic assays in the presence of the compounds of the invention were conducted under the same conditions. Small molecules were added from a stock solution (1 mM or 10 mM in DMSO) to keep the final concentration of DMSO less than 1.0% (v/v). Small molecules were added to the wells with ThT and buffer and mixed gently with a pipette before adding IAPP. To keep the conditions identical, an equal amount of DMSO was added to the wells with IAPP only reactions. For the aggregation kinetics of Aβ42, the peptide was dissolved in 1N NaOH (0.5-1 mM) and vortexed for 2 min. to ensure the complete solubility. The aggregation of 3 μM Aβ42 was initiated by addition of peptide from a stock solution (in 1 N NaOH, 0.5-1 mM) to phosphate buffer.
Kinetic profiles were processed using Origin (version 9.1). Kinetic curves were fit using the built-in sigmoidal fit. Each run was fit independently to extract the t50 (time required to reach 50% of the maximum fluorescence intensity). Error bars represent standard deviations from the mean of at least three independent experiments.
The membrane model system selected for the amyloid assays is a mixture of DOPG (dioleoylphosphatidylglycerol) and DOPC (dioleoylphosphatidylcholine) at 3:7 molar ratio, which mimics physiological conditions (Ono, K.; Condron, M. M.; Teplow, D. B. Proc. Natl. Acad. Sci. U.S.A. 2009, 106, 14745-14750). The lipid catalyzed aggregation of IAPP was initiated by adding freshly prepared 15 μM IAPP (1 mM stock solution in DMSO) to the phosphate buffer (50 mM NaPi, 150 mM KCl, pH 7.4) containing 15 μM ThT and 750 μM of unilamellar liposomes (LUVs, DOPG:DOPC, 3:7, d=100 nm).

[2] = target: T1, islet amyloid polypeptide (IAPP); assay: PICUP SDS-PAGE silver staining of IAPP oligomerization; assay type: biochemical; settings: 15 μM IAPP, equimolar ratio, up to 300 min
Procedure: The effect of ADH-101 on the oligomerization of IAPP was evaluated using performance photo-induced cross-linking of unmodified proteins (PICUP) SDS-PAGE-silver staining as described in Ono, K.; Condron, M. M.; Teplow, D. B. Proc. Natl. Acad. Sci. U.S.A. 2009, 106, 14745-14750 (FIG. 2E). IAPP was incubated in a buffer in the presence and absence of ADH-101 at an equimolar ratio, and the solutions were then treated with the cross-linking agent at various time intervals (FIG. 2E). IAPP forms oligomers of varying sizes as a function of time (FIG. 2E, Lane i-iv). […] Without wishing to be bound by any theory, it is postulated that ADH-101 forms a complex with monomeric IAPP and abolishes the oligomerization of IAPP.

[3] = Self-aggregation by UV, centrifugation and DLS; assay type: physicochemical
Excerpt: ADH-101 contains hydrophobic and negatively charged groups and presents a possibility for self-aggregation. It has been shown that the small molecules with self-aggregation tendencies can inhibit amyloid formation in a non-specific manner. Therefore, UV, centrifugation, and DLS were used to explore the self-aggregation properties of ADH-101 (FIG. 12A).

[4] = target: T1, islet amyloid polypeptide (IAPP); assay: ThT-based kinetic assay of IAPP fibrillation; assay type: biochemical

In the case of CCOC(=O)c1cc(NC(=O)c2cc(NC(=O)c3cc([N+](=O)[O-])cn3CC(C)C)cn2CC(C)C)cn1CCC(=O)O [ADH-101], the “antagonist of oligomerization, fibrillation, and/or aggregation of IAPP (in words)” value [1] is reported as “effective antagonist”, the “inhibition of IAPP aggregation” value ([1]; de novo (no lipid membrane), fivefold excess) is reported as “completely abolishes” and the “relative t50 of IAPP fibrillation versus control reaction” value ([1]; de novo / lipid free) is reported as 4.4 fold. For the same compound, the “change in the intensity of ThT” value ([1]; identical conditions without IAPP) was “no significant change”, the “relative t50 of IAPP fibrillation versus control reaction” value ([1]; lipid catalyzed (750 μM LUVs, DOPG:DOPC 3:7)) was 2.7 fold and the “fold better inhibitor of IAPP fibrillation than Acid Fuchsin” value ([1]; lipid catalyzed conditions) was 3.5 fold. The “fold better inhibitor of IAPP fibrillation than Curcumin” value ([1]; lipid catalyzed conditions) was 2.2 fold, the “fold better inhibitor of IAPP fibrillation than EGCG” value ([1]; lipid catalyzed conditions) was 3.3 fold and the “inhibition of IAPP fibrillation” value ([1]; lipid catalyzed, stoichiometric ratio 10:1 (ADH-101:IAPP)) was “completely inhibits”. The “IAPP oligomerization (PICUP)” value [2] was “completely inhibits the formation of large aggregates”, the “diameter of species by DLS” value ([3]; 50 μM, 150 mM KCl, 50 mM NaPi, pH 7.4) was “less than 10 nm” and the “concentration up to which the compound did not self-assemble” value ([3]; phosphate buffer, UV and centrifugation) was over 40 µM. The “inhibition of IAPP fibrillation when added during the lag phase, compared to premixed (t=0 h)” value ([4]; added at 1 h and 3 h, equimolar ratio, 10 μM IAPP) was “equally effective”, the “effect on IAPP amyloid fibers (ThT fluorescence)” value ([4]; added to the fibers) was “no effect” and the “factor of delay of IAPP amyloid kinetics” value ([4]; cholesterol-containing LUVs (30% cholesterol), 15 μM IAPP, equimolar ratio) was 3.6.

Source: US11124479B2, “Oligopyrroles as antagonists of islet amyloid polypeptide oligomerization” (New York University, priority 2017, dated 2021)
